The values below come from patent publication US20040121474A1, “Detection and evaluation of chemically-mediated and ligand-mediated t-cell activation using optophoretic analysis” (Genoptix, Inc, priority 2002, published 2004).

Converted amounts (≈) assume the structure as drawn.

The test system of assay [1] is U937 cells. The experiment in a line: Escape velocity of PMA-treated U937 cells, time course. It is filed as cell-based. As to the method: PMA was dissolved in ethanol at a concentration of 5 mg/mL. 3 mls of U937 cells grown in RPMI 1640 media with supplements were removed from the culture flask and 1 ml was placed into each of three eppendorf tubes. Cells from the first tube were pelleted for 4 minutes at 10,000 rpm and resuspended in 250 uL PBS/1% BSA buffer for escape velocity measurements. […] These tubes were vortexed and placed in a 37° C. water bath for either one hour or six hours. At the end of the time point, the tube was removed, cells were pelleted and then resuspended as described above and escape velocity measurements taken.
The preferred method of performing cellular interrogation is through optical interrogation which includes determining the optophoretic properties of the cell(s). The optophoretic properties of the cell(s) can be determined in any number of ways. In one preferred embodiment, the escape velocity of cell(s) is used to determine the optophoretic properties. The escape velocity (measured typically in μm/sec) is defined as the minimum speed at which an interrogated cell no longer tracks the moving optical gradient.
The objective of this experiment is to compare the escape velocities of U937 cells that have been treated with the phorbol ester, phorbol 12 myristate 13-acetate (PMA), to the escape velocity of untreated U937 cells. PMA activates the Protein Kinase C pathway and may cause the cells to go into rapid cell differentiation, which may be indicated by a shift in escape velocity. The effect of PMA activation was tested at three timepoints: no activation, 1 hour of activation, and 6 hours of activation. At the end of the activation period, the cells were centrifuged for 4 minutes at 10,000 rpm. […] The cells were then centrifuged again and resuspended in buffer. The escape velocity and the cell size of cells from each tube were then calculated.

Assay [2] deals with U937 cells. The experiment in a line: Quantitative determination of PKC activation, escape velocity dose response. Type of assay: cell-based. Conditions: five hours. As to the method:
Optophoretic analysis was used to develop a full dose response curve for U937 cells treated with PMA. U937 cells were incubated with varying amounts of PMA dissolved in DMSO. The following concentrations of PMA were tested: 0.156 ng/ml, 0.312 ng/ml, 0.625 ng/ml, 1.25 ng/ml, 2.5 ng/ml, 5 ng/ml, and no PMA (control). […] Escape velocity measurements were then taken using a 100 mW laser having a beam diameter of 28 pixels. Table 9 reproduced below sets forth the measured escape velocities (μm/sec) for each of the various PMA concentrations.
The method described above may be used to quantitatively determine the level of PKC activation in cells in response to exposure to PKC activating compound using a moving optical gradient. The method includes the steps of first providing a series of cell samples and exposing the series of cell samples to different concentrations of the PKC activating compound. After a period of incubation from about one to several hours, the cells and the optical gradient are moved relative to each other so as to cause displacement of at least some of the cells. Next, the displacement of at least a portion of the displaced cells is measured for each of the different concentrations. […] From the dose response curve, one is able to calculate one or more numerical values that correlate to PKC potency and/or efficacy. For example, the dose response curve can be used to calculate the EC50, Hill slope, or plateau value relative to a standard compound.

Usually EC50 stands for the concentration giving half of the maximal effect.

On to `CCCCCCCCCCCCCC(=O)O[C@@H]1[C@@H](C)[C@@]2(O)[C@@H](C=C(CO)C[C@]3(O)C(=O)C(C)=C[C@@H]23)[C@@H]2C(C)(C)[C@]12OC(C)=O` [PMA, phorbol 12 myristate 13-acetate], for which the “distribution of escape velocities (FIG. 31)” value in assay [1] (0.01 μg/ml PMA, 6 and 9 hours post treatment) is listed as “clear trend toward higher escape velocities over time”. The “escape velocity as compared to the untreated cells” value in assay [1] (5 ug/mL PMA, 6 hours) is reported as “significantly higher escape velocity”. Further, the “Escape velocity Average” value is given as 15.3 μm/sec in assay [1] (1 hour of PMA activation); 28.0 μm/sec in assay [1] (6 hours of PMA activation); 17.0 μm/sec in assay [2] (1.25 ng/ml PMA); 17.0 μm/sec in assay [2] (2.5 ng/ml PMA); 17.3 μm/sec in assay [2] (5 ng/ml PMA); 15.8 μm/sec in assay [2] (.156 ng/ml PMA). The “Escape velocity Average” value was 16.0 μm/sec in assay [2] (.312 ng/ml PMA) and 16.6 μm/sec in assay [2] (.625 ng/ml PMA). The EC50 in assay [2] (Homo sapiens, U-937, 5 h, escape velocity, U937 cells, read-out: EC50 value of the PMA dose response curve (FIG. 53)) is around 0.625 ng/mL (≈ 1.01 nM). For the same molecule, the “PMA concentrations at which a significant shift in escape velocity is seen” value in assay [2] (U937 cells) was “exceeding 0.625 ng/ml”.
